Results on 48 compounds are retold here after article PMC5681660, “Reduced hepatitis B and D viral entry using clinically applied drugs as novel inhibitors of the bile acid transporter NTCP” (Scientific Reports, 2017).

Where a name gives a salt, the structure may show the parent alone.

The assay deals with T1, human NTCP (Homo sapiens, UniProt Q14973).
T1 sequence (Q14973 1-349): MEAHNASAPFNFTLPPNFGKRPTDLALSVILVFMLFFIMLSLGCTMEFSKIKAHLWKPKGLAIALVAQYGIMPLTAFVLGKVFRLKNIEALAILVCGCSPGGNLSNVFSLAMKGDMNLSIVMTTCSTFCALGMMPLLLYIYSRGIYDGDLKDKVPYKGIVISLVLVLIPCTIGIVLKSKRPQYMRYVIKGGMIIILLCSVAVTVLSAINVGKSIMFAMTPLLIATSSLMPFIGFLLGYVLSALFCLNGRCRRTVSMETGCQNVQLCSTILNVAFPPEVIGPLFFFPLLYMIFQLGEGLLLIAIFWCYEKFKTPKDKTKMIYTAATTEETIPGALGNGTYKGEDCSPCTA
Put plainly: Screening taurocholate uptake assay (96-well, [14C]taurocholate, 10 µM drug). The conditions noted are these: for B-score functional assay: screening taurocholate uptake, 10 µM drug.

[1] abbreviates: combined ranking of functional and binding screening assays.
Where [2] appears, read: ranking over the functional and the binding screening assay.

On to `CCN(CC)CCNC(=O)c1cc(Cl)c(N)cc1OC.Cl` [Metoclopramide monohydrochloride], for which, under setting [1], the Ranking score is on record as 1141.61. Further, the B-score functional assay (B-score) came to 0.859.

`Cc1cccc(C)c1OCC(C)N` (centres unmarked) [Mexiletine hydrochloride] displayed a B-score functional assay of -0.898. Moreover, the Ranking score under setting [1] is on record as 487.63.

Turning to `CCN1CCN(C(=O)N[C@@H](C(=O)N[C@@H]2C(=O)N3[C@@H]2SC(C)(C)[C@@H]3C(=O)O)c2ccccc2)C(=O)C1=O` [Piperacillin sodium salt], the B-score functional assay is reported as -0.194. Also, under setting [1], the Ranking score was found to be 549.729.

In turn, `Nc1nc2c(ncn2CCC(CO)CO)c(=O)[nH]1` [Penciclovir] came in with a B-score functional assay of -0.886. Moreover, under setting [1], the Ranking score worked out at 573.819.

For the compound `CNCCC(Oc1ccc(C(F)(F)F)cc1)c1ccccc1` (centres unmarked) [Fluoxetine hydrochloride], the Ranking score under setting [2] was determined as 265.518.

In the case of `c1ccc(C2CN3CCSC3=N2)cc1` (centres unmarked) [Tetramisole hydrochloride], the B-score functional assay is given as -2.419. Under setting [2], this compound returned a Ranking score of 250.531.

As to `N=C(N)N/N=C/c1c(Cl)cccc1Cl` [Guanabenz acetate], the B-score functional assay is -1.531. For the same compound, the Ranking score under setting [1] stood at 467.541.

In the case of `CC(=O)[C@@]12O[C@](C)(c3ccccc3)O[C@@H]1C[C@H]1[C@@H]3CCC4=CC(=O)CC[C@]4(C)[C@H]3CC[C@@]12C` [Algestone acetophenide], the B-score functional assay is -2.799. Under setting [2], the Ranking score is reported as 142.566.

On to `C[C@H](CCC(=O)O)[C@H]1CC[C@H]2[C@@H]3CC[C@@H]4C[C@H](O)CC[C@]4(C)[C@H]3CC[C@]12C` [Lithocholic acid], for which the B-score functional assay is reported as -6.112. For the same compound, the Ranking score under setting [2] is 22.4499.

`C=C1/C(=C\C=C2/CCC[C@]3(C)[C@@H]([C@H](C)CCCC(C)C)CC[C@@H]23)C[C@@H](O)C[C@@H]1O` [Alfacalcidol] registered a B-score functional assay of -0.117. Besides, under setting [1], the Ranking score was 594.47.

As for `O=C1CCc2ccc(OCCCCN3CCN(c4cccc(Cl)c4Cl)CC3)cc2N1` [Aripiprazole], the B-score functional assay is 1.007. The Ranking score under setting [1] is recorded as 580.393.

As to `Cc1c(C)c2c(c(C)c1O)CCC(C)(C(=O)O)O2` (centres unmarked) [Trolox], the B-score functional assay was -2.983. The same compound returned a Ranking score under setting [2] of 114.263.

In the case of `CN1CCN(c2c(F)cc3c(=O)c(C(=O)O)cn(CCF)c3c2F)CC1` [Fleroxacin], the Ranking score under setting [1] was 1148.84. Further, under “B-score”, the B-score functional assay came out at 1.693.

Take `Cc1ccc(S(=O)(=O)NC(=O)NN2CC3CCCC3C2)cc1` (centres unmarked) [Gliclazide]: the B-score functional assay is listed as -0.222. This compound showed a Ranking score under setting [2] of 246.057.

Consider `Cc1c(Nc2ncccc2C(=O)O)cccc1C(F)(F)F` [Flunixin meglumine], for which the B-score functional assay was -2.582. The Ranking score under setting [2] was found to be 133.828.

The compound `O=C(N[C@H](CO)[C@H](O)c1ccc([N+](=O)[O-])cc1)C(Cl)Cl` [Chloramphenicol] showed a B-score functional assay of 2.451. For the same compound, the Ranking score under setting [1] stood at 594.757.

`CCC(=O)O[C@]1(C(=O)CCl)[C@@H](C)C[C@H]2[C@@H]3CCC4=CC(=O)C=C[C@]4(C)[C@@]3(F)[C@@H](O)C[C@@]21C` [Clobetasol propionate] returned a B-score functional assay of -0.819. Under setting [2], this compound came in with a Ranking score of 265.371.

Turning to `CC(=O)SCC(Cc1ccccc1)C(=O)NCC(=O)OCc1ccccc1` (centres unmarked) [Racecadotril], the B-score functional assay is listed as -1.398. Further, the Ranking score under setting [2] came to 264.726.

In the case of `COC(=O)Nc1nc2ccc(Sc3ccccc3)cc2[nH]1` [Fenbendazole], under setting [1], the Ranking score is reported as 1220.76. Moreover, for the setting “B-score”, the B-score functional assay amounted to 1.989.

As for `NC(=O)NC1NC(=O)NC1=O` (centres unmarked) [Allantoin], the B-score functional assay is -2.549. Further, the Ranking score under setting [2] came out at 134.967.

As to `CC(CN(C)C)C(C)(O)Cc1ccc(Cl)cc1.Cl` (centres unmarked) [Clobutinol hydrochloride], the B-score functional assay is -0.006. In addition, the Ranking score under setting [1] came out at 492.244.

In the case of `CC[C@@H](CO)NCCN[C@@H](CC)CO` [Ethambutol dihydrochloride], the B-score functional assay was -3.373. The Ranking score under setting [2] was found to be 218.945.

`C#Cc1cccc(Nc2ncnc3cc(OCCOC)c(OCCOC)cc23)c1` [Erlotinib] gave a B-score functional assay of -3.126. Also, the Ranking score under setting [2] was found to be 239.996.

With `CO/N=C(\C(=O)N[C@@H]1C(=O)N2C(C(=O)O)=C(C[N+]3(C)CCCC3)CS[C@H]12)c1csc(N)n1` [Cefepime hydrochloride], under setting [1], the Ranking score amounted to 1157.98. Where the note is “B-score”, this compound yielded a B-score functional assay of 1.484.

For the compound `CCOC(=O)Nc1ccc2c(c1)N(C(=O)CCN1CCOCC1)c1ccccc1S2` [Moricizine hydrochloride], under setting [1], the Ranking score is given as 1215.96. This compound gave a B-score functional assay (B-score) of 2.078.

Regarding `CN(C)CCOc1ccc(/C(=C(/CCCl)c2ccccc2)c2ccccc2)cc1` [Toremifene], the B-score functional assay worked out at 0.057. Besides, under setting [1], the Ranking score is given as 537.181.

`CS(=O)(=O)c1ccc([C@@H](O)[C@@H](CF)NC(=O)C(Cl)Cl)cc1` [Florfenicol] had a B-score functional assay of -0.913. The compound further had a Ranking score under setting [2] of 235.125.

For the compound `CNCCc1ccccn1.CS(=O)(=O)O.CS(=O)(=O)O` [Betahistine mesylate], the B-score functional assay is -5.129. For the same compound, the Ranking score under setting [2] amounted to 145.348.

Compound `CC/C(=C(/CC)c1ccc(O)cc1)c1ccc(O)cc1` [Diethylstilbestrol] displayed a B-score functional assay of -0.349. The compound further displayed a Ranking score under setting [2] of 262.907.

Turning to `CCC1(c2cccc(O)c2)CCCCN(C)C1` (centres unmarked) [Meptazinol hydrochloride], the B-score functional assay is reported as -1.3. Besides, under setting [1], the Ranking score is given as 474.66.

`OC(Cn1cncn1)(Cn1cncn1)c1ccc(F)cc1F` [Fluconazole] returned a B-score functional assay of 1.083. Moreover, the Ranking score under setting [1] came to 553.146.

Take `COc1cc2nc(N3CCN(C(=O)C4CCCO4)CC3)nc(N)c2cc1OC` (centres unmarked) [Terazosin hydrochloride]: the B-score functional assay is listed as -0.092. For the same compound, the Ranking score under setting [1] amounted to 497.689.

The compound `CC(=O)O[C@H]1C[C@@]2(C)[C@@H](C[C@@H](O)[C@H]3[C@@]4(C)CC[C@@H](O)[C@@H](C)[C@@H]4CC[C@@]32C)/C1=C(\CCC=C(C)C)C(=O)O` [Fusidic acid sodium salt] came in with a B-score functional assay of -0.548. In addition, under setting [1], the Ranking score stood at 523.068.

`CC(=O)NCCCS(=O)(=O)O` [Acamprosate calcium] registered a B-score functional assay of -0.535. In addition, the Ranking score under setting [2] was found to be 126.206.

Turning to `Oc1c(I)cc(Cl)c2cccnc12` [Clioquinol], the B-score functional assay stood at 0.225. Also, the Ranking score under setting [1] is listed as 627.53.

Compound `CCCCCN(C)CCC(O)(P(=O)([O-])O)P(=O)(O)O.[Na+]` [Ibandronate sodium] gave a B-score functional assay of 0.015. For the same compound, the Ranking score under setting [2] was 183.606.

In turn, `COCCCC/C(=N\OCCN)c1ccc(C(F)(F)F)cc1` [Fluvoxamine maleate] yielded a B-score functional assay of 0.566. In addition, the Ranking score under setting [1] is given as 486.369.

In turn, `CC(=O)N[C@@H](CS)C(=O)O` [Acetylcysteine] registered a B-score functional assay of -1.045. Further, the Ranking score under setting [1] is given as 542.19.

Consider `CN(C)CCCOc1nn(Cc2ccccc2)c2ccccc12` [Benzydamine hydrochloride], for which the B-score functional assay is reported as 0.075. Further, the Ranking score under setting [1] came to 571.97.

As to `CC(=O)OCC(=O)[C@@]12OC(C)(C)O[C@@H]1C[C@H]1[C@@H]3C[C@H](F)C4=CC(=O)C=C[C@]4(C)[C@@]3(F)[C@@H](O)C[C@@]12C` [Fluocinonide], the B-score functional assay amounted to 0.319. Moreover, the Ranking score under setting [1] was found to be 619.745.

Compound `CN1[C@@H]2CC[C@H]1C[C@@H](OC(c1ccccc1)c1ccccc1)C2` [Benztropine mesylate] showed a B-score functional assay of -0.008. Under setting [1], the Ranking score worked out at 529.655.

The compound `Cl.Cl.OCCN1CCN(CC/C=C2/c3ccccc3Sc3ccc(Cl)cc32)CC1` [Zuclopenthixol dihydrochloride] showed a B-score functional assay of -0.306. Further, the Ranking score under setting [2] is listed as 243.28.

Turning to `CC[C@H](C)C(=O)O[C@H]1C[C@H](O)C=C2C=C[C@H](C)[C@H](CC[C@@H](O)C[C@@H](O)CC(=O)O)[C@H]21` [Pravastatin], the B-score functional assay was -3.481. The same compound registered a Ranking score under setting [2] of 245.632.

With `CC(=O)O[C@]1(C(C)=O)CC[C@H]2[C@@H]3C=C(Cl)C4=CC(=O)CC[C@]4(C)[C@H]3CC[C@@]21C` [Chlormadinone acetate], the B-score functional assay is -1.751. Under setting [2], this compound gave a Ranking score of 87.43.

Regarding Verteporfin, the B-score functional assay is recorded as -2.252. Besides, the Ranking score under setting [2] was 33.9116.

Take `COc1ccc(C(=O)CC(=O)c2ccc(C(C)(C)C)cc2)cc1` [Avobenzone]: the B-score functional assay is given as -0.955. Further, the Ranking score under setting [2] is on record as 206.26.

Regarding `CC(C)(C#N)c1cc(Cn2cncn2)cc(C(C)(C)C#N)c1` [Anastrozole], the B-score functional assay worked out at 0.728. Besides, under setting [1], the Ranking score came to 558.153.

Compound `CCCOc1ccc2nc(NC(=O)OC)[nH]c2c1` [Oxibendazol] showed a B-score functional assay of -0.538. This compound registered a Ranking score under setting [2] of 199.274.
